Measured values: patent US10239869B2, “Sulfonamide compounds as voltage-gated sodium channel modulators” (LUPIN LIMITED, priority 2015, dated 2019)

Assays:
[1] = biological target: Nav 1.5 (Homo sapiens (Human), UniProt Q14524); assay: Inhibition of sodium channels, Red Membrane Potential Dye FLIPR assay, veratridine depolarization; assay type: cell-based; conditions: HEK-293 cells overexpressing the channel; for inhibition at 10 µM: HEK-293 cells overexpressing Nav 1.5; for IC50: read-out: Nav1.5 IC50 (bound given in μM)
[2] = biological target: Nav 1.7 (Homo sapiens (Human), UniProt Q15858); assay: as above; assay type: cell-based; conditions: HEK-293 cells overexpressing the channel; read-out: Nav1.7 IC50
Sequence of Nav 1.7 (Q15858 whole entry): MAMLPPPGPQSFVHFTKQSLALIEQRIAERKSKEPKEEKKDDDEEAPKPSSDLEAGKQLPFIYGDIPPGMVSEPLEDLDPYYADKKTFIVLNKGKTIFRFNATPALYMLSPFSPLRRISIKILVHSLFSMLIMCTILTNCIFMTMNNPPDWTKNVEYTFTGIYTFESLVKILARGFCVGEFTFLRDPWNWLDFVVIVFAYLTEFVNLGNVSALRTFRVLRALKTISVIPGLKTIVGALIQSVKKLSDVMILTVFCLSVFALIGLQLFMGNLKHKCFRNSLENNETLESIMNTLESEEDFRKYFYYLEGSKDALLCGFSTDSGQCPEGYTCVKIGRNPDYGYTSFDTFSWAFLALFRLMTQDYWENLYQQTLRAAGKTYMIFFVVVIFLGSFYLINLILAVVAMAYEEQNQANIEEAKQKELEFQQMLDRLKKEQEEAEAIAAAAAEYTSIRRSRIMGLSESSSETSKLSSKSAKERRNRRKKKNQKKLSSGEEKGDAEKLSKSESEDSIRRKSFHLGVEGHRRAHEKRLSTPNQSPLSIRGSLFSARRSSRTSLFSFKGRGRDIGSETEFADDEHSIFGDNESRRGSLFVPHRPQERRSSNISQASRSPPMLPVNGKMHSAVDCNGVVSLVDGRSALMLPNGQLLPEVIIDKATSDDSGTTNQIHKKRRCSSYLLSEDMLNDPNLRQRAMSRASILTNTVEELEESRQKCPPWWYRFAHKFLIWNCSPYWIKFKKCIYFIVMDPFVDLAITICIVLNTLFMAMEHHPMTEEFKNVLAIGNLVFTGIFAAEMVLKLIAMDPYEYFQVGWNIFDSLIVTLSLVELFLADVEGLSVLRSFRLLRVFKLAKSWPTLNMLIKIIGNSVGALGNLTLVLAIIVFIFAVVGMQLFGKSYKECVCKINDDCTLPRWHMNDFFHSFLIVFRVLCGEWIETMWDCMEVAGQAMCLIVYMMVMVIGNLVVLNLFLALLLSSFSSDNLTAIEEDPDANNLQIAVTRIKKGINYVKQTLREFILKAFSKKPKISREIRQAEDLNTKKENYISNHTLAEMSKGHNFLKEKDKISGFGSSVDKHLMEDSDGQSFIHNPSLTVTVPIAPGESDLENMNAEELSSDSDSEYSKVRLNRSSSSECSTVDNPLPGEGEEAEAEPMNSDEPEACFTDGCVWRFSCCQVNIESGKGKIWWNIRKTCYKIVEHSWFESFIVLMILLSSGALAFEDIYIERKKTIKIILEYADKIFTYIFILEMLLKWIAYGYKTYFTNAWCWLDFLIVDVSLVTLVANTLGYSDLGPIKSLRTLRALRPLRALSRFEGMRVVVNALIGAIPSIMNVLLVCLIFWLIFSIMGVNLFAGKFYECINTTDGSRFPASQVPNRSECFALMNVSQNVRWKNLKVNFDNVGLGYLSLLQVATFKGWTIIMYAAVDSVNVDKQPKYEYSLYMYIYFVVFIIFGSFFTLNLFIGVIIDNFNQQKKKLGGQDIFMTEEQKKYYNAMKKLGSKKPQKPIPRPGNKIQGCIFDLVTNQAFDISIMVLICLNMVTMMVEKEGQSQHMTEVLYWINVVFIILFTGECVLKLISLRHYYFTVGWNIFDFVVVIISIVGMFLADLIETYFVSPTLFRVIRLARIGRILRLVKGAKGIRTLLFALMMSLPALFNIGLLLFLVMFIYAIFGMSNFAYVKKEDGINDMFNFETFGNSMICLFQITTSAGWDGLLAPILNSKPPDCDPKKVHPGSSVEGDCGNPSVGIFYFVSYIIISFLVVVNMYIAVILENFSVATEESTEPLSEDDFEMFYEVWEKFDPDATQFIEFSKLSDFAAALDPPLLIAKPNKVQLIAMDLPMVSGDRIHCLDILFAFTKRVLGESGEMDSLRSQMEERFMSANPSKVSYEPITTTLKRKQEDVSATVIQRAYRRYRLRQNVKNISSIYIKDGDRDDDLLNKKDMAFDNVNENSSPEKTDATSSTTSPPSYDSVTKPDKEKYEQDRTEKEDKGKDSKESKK

Sequence of Nav 1.5 (Q14524 whole entry): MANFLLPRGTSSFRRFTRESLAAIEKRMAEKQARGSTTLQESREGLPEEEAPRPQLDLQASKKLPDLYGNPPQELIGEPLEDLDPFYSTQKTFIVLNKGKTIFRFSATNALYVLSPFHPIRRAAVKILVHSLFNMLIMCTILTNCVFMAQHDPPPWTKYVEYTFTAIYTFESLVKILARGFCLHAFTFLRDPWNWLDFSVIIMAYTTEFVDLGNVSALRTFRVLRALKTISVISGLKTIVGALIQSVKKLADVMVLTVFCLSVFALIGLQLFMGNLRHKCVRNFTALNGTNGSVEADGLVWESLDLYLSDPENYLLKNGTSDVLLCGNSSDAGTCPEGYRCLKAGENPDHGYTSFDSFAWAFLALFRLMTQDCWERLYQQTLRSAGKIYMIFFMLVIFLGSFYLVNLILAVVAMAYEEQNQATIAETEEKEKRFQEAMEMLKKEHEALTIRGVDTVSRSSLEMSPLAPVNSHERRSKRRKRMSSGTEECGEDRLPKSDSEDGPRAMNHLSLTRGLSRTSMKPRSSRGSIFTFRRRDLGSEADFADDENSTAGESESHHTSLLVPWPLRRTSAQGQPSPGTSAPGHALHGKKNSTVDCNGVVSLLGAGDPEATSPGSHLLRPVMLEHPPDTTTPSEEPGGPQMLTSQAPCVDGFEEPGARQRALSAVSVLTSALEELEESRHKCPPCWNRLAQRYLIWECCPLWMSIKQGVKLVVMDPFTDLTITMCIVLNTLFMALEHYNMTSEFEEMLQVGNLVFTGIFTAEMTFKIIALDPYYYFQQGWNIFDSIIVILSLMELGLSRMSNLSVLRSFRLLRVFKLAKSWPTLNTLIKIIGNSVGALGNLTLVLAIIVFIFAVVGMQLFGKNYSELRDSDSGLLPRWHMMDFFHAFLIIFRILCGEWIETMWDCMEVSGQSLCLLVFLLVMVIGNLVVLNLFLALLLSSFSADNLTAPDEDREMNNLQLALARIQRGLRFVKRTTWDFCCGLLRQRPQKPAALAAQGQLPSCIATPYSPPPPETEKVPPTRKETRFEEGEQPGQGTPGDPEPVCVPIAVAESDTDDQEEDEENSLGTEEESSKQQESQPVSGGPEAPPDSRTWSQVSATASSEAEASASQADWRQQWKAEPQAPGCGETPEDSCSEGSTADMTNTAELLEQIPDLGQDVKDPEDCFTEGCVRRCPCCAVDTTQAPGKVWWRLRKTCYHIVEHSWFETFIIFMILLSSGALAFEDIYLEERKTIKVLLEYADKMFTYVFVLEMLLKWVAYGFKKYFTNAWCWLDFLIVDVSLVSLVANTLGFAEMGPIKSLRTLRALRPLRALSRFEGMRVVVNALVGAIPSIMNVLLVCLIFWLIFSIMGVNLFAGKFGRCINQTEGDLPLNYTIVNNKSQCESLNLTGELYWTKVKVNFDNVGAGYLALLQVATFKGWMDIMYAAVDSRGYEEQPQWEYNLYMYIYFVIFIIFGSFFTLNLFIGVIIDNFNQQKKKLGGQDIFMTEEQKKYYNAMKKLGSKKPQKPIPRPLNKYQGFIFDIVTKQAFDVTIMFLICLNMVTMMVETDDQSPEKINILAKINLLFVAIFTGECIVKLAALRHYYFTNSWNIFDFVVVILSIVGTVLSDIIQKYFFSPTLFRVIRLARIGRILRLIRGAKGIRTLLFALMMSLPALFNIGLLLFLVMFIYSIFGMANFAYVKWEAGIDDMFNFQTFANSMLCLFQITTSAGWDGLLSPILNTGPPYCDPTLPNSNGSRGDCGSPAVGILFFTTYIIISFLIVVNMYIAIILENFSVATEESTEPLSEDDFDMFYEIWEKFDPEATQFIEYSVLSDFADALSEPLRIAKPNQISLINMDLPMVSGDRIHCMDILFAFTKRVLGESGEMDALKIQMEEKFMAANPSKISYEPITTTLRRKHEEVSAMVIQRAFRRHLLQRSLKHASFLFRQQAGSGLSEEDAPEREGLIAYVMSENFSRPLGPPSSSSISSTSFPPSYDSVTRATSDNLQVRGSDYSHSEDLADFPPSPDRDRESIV

| SMILES | IC50 [2] [nM] | IC50 [1] [µM] | also measured |
| --- | --- | --- | --- |
| O=S(=O)(Nc1ncccn1)c1ccc2c(c1)OCC[C@@H]2c1ccc(C(F)(F)F)cc1-c1nccs1 (racemic) [Example 93, (R/S)—N-(pyrimidin-2-yl)-4-(2-(thiazol-2-yl)-4-(trifluoromethyl)phenyl)chroman-7-sulfonamide] | 4 |  | inhibition at 10 µM [1]: 56% |
| O=S(=O)(Nc1ccncn1)c1ccc2c(c1)OCC[C@@H]2c1ccc(C(F)(F)F)cc1-c1nccs1 (racemic) [Example 94, (R/S)—N-(pyrimidin-4-yl)-4-(2-(thiazol-2-yl)-4-(trifluoromethyl)phenyl)chroman-7-sulfonamide] | 3 |  | inhibition at 10 µM [1]: 51% |
| O=S(=O)(Nc1cccnn1)c1ccc2c(c1)OCC[C@@H]2c1ccc(C(F)(F)F)cc1-c1nccs1 (racemic) [Example 95, (R/S)—N-(pyridazin-3-yl)-4-(2-(thiazol-2-yl)-4-(trifluoromethyl)phenyl)chroman-7-sulfonamide] | 11 |  | inhibition at 10 µM [1]: 74% |
| Cc1cccc(NS(=O)(=O)c2ccc3c(c2)OCC[C@@H]3c2ccc(C(F)(F)F)cc2-c2ccnn2C)n1 [Example 20, (S&R)-4-(2-(1-methyl-1H-pyrazol-5-yl)-4-(trifluoromethyl)phenyl)-N-(6-methylpyridin-2-yl)chroman-7-sulfonamide] | 245 |  |  |
| O=S(=O)(Nc1cccc(F)n1)c1ccc2c(c1)OCC[C@@H]2c1ccc(C(F)(F)F)cc1-n1ccnn1 [Example 60, (S&R)-4-(2-(1H-1,2,3-Triazol-1-yl)-4-(trifluoromethyl)phenyl)-N-(6-fluoropyridin-2-yl) chromane-7-sulfonamide] |  | > 10 |  |
| O=S(=O)(Nc1ncccn1)c1ccc2c(c1)OCC[C@H]2c1ccc(C(F)(F)F)cc1N1CCOCC1 [Example 118, (S&R)-4-(2-morpholino-4-(trifluoromethyl)phenyl)-N-(pyrimidin-2-yl)chroman-7-sulfonamide] |  | > 10 |  |
| O=S(=O)(Nc1ncccn1)c1ccc2c(c1)OCC[C@@H]2c1ccc(C(F)(F)F)cc1N1CCOCC1 [Example 119, (S&R)-4-(2-morpholino-4-(trifluoromethyl)phenyl)-N-(pyrimidin-2-yl)chroman-7-sulfonamide] |  |  | Nav1.5 % inhibition @ 10 μM [1]: 30% |
| O=C(O)c1ccc(-c2cc(C(F)(F)F)ccc2[C@@H]2CCOc3cc(S(=O)(=O)Nc4ncccn4)ccc32)cc1 [Example-187, (S&R)-2′-(7-(N-(pyrimidin-2-yl)sulfamoyl)chroman-4-yl)-5′-(trifluoromethyl)-[1,1′-biphenyl]-4-carboxylic acid] | 2600 |  |  |
| O=S(=O)(Nc1ncccn1)c1ccc2c(c1)OCC[C@H]2c1ccc(C(F)(F)F)cc1-c1ccc(F)cn1 [Example-193, (S&R)-4-(2-(5-fluoropyridin-2-yl)-4-(trifluoromethyl)phenyl)-N-(pyrimidin-2-yl)chroman-7-sulfonamide] |  | > 10 |  |
| O=S(=O)(Nc1ncccn1)c1ccc2c(c1)OCC[C@@H]2c1ccc(C(F)(F)F)cc1-c1ccc(F)cn1 [Example-194, (S&R)-4-(2-(5-fluoropyridin-2-yl)-4-(trifluoromethyl)phenyl)-N-(pyrimidin-2-yl)chroman-7-sulfonamide] |  |  | Nav1.5 % inhibition @ 10 μM [1]: 65% |
| Cc1ccc(-c2cc(C(F)(F)F)ccc2[C@@H]2CCOc3cc(S(=O)(=O)Nc4ncccn4)ccc32)cn1 [Example-201, (S)-4-(2-(6-methylpyridin-3-yl)-4-(trifluoromethyl)phenyl)-N-(pyrimidin-2-yl)chromane-7-sulfonamide] |  | > 10 |  |
| Cc1ccc(-c2cc(C(F)(F)F)ccc2[C@H]2CCOc3cc(S(=O)(=O)Nc4ncccn4)ccc32)cn1 [Example-202, (R)-4-(2-(6-methylpyridin-3-yl)-4-(trifluoromethyl)phenyl)-N-(pyrimidin-2-yl)chroman-7-sulfonamide] |  | > 10 |  |
| O=S1(=O)CCN(c2cc(C(F)(F)F)ccc2[C@H]2CCOc3cc(S(=O)(=O)Nc4ncccn4)ccc32)CC1 [Example-233, (S&R)-4-(2-(1,1-dioxidothiomorpholino)-4-(trifluoromethyl)phenyl)-N-(pyrimidin-2-yl)chroman-7-sulfonamide] |  | > 10 |  |
